According to ChEMBL document CHEMBL1150663, “Pachastrissamine, a cytotoxic anhydrophytosphingosine from a marine sponge, Pachastrissa sp” (J Nat Prod, 2002):

Assays:
Assay type in all cases: functional, cell-based
P388 = experiment: Cytotoxicity against mouse P388 cells after 3 days; settings: P388, 72 h
A549 = experiment: Cytotoxicity against human A549 cells after 3 days; settings: A549, 72 h
HT-29 = experiment: Cytotoxicity against human HT-29 cells after 3 days; settings: HT-29, 72 h
SK-MEL-28 = experiment: Cytotoxicity against human SK-MEL-28 cells after 3 days; settings: SK-MEL-28, 72 h

Measured: IC50

CCCCCCCCCCCCCC[C@@H]1OC[C@H](N)[C@@H]1O [PACHASTRISSAMINE]
0.01 µg/mL: P388 | A549 | HT-29 | SK-MEL-28
